Laboratory results: patent US20050096278A1, “Antibacterial agents” (priority 2003, published 2005)
In brackets after ≈: the same amount, converted by molar mass.

Assays:
E. faecalis MGH-2 = assay: Antibacterial assay (standard microtitration), MIC; assay type: cell-based; conditions: Enterococcus faecalis, MGH2; Gram Positive Bacteria; Table 1B; read-out: Minimum Inhibitory Concentrations, E. faecalis MGH-2
Experimental: (§1) Test A—Antibacterial Assays
(§2) The compounds of the present invention were tested against an assortment of Gram-negative and Gram-positive organisms using standard microtitration techniques (Cohen et. al., Antimicrob., 1985;28:766; Heifetz, et. al., Antimicrob., 1974;6:124). The results of the evaluation are shown in Tables 1A and B. In the tables, “—” means no data.

S pyogenes C203 = assay: Antibacterial assay (standard microtitration), MIC; assay type: cell-based; conditions: Gram Positive Bacteria; Table 1B; read-out: Minimum Inhibitory Concentrations, S pyogenes C203
Experimental: as §1, §2

S. aureus UC-76 = assay: Antibacterial assay (standard microtitration), MIC; assay type: cell-based; conditions: Staphylococcus aureus, UC76, Gram Positive Bacteria; Table 1B; read-out: Minimum Inhibitory Concentrations, S. aureus UC-76
Experimental: as §1, §2

E. coli MC4100 = assay: Antibacterial assay (standard microtitration), MIC; assay type: cell-based; conditions: Gram Negative Bacteria, Table 1A; for MIC: Escherichia coli, MC4100, read-out: Minimum Inhibitory Concentrations, E. coli MC4100
Experimental: as §1, §2

H. influenzae HI-3542 = assay: Antibacterial assay (standard microtitration), MIC; assay type: cell-based; conditions: Gram Negative Bacteria, Table 1A; for MIC: Haemophilus influenzae, HI3542, read-out: Minimum Inhibitory Concentrations, H. influenzae HI-3542
Experimental: as §1, §2

M. catarrhalis BC-3531 = assay: Antibacterial assay (standard microtitration), MIC; assay type: cell-based; conditions: Moraxella catarrhalis, BC3531; Gram Negative Bacteria; Table 1A; read-out: Minimum Inhibitory Concentrations, M. catarrhalis BC-3531
Experimental: as §1, §2

SMILES	MIC (E. coli MC4100) [µg/mL]	MIC (H. influenzae HI-3542) [µg/mL]	MIC (M. catarrhalis BC-3531) [µg/mL]	also measured
COc1c(N2CCC(O)(CO)CC2)c(F)cc2c(=O)c(C(=O)O)cn(C3CC3)c12				melting point: 200 to 210 °C (dec.)
COc1c(N2CCC(O)C(CO)C2)c(F)cc2c(=O)c(C(=O)O)cn(C3CC3)c12 (stereo not drawn)				melting point: 115 to 125 °C
COc1c(N2CCC(C(O)CO)CC2)c(F)cc2c(=O)c(C(=O)O)cn(C3CC3)c12 (stereo not drawn)				melting point: 200 to 204 °C
COc1c(N2CCC(C(O)CCO)CC2)c(F)cc2c(=O)c(C(=O)O)cn(C3CC3)c12 (stereo not drawn)				melting point: 210 to 214 °C
Cc1c(N2CCC(O)C(CO)C2)c(F)cc2c(=O)c(C(=O)O)cn(C3CC3)c12 (stereo not drawn)				MIC (E. faecalis MGH-2): 0.25 µg/mL (≈ 0.64 µM); MIC (S pyogenes C203): 0.25 µg/mL (≈ 0.64 µM); MIC (S. aureus UC-76): 0.015 µg/mL (≈ 0.0384 µM)
COc1c(N2CCC(CCO)CC2)c(F)cc2c(=O)c(C(=O)O)cn(C3CC3)c12				MIC (E. faecalis MGH-2): 0.125 µg/mL (≈ 0.309 µM); MIC (S pyogenes C203): 0.25 µg/mL (≈ 0.618 µM); MIC (S. aureus UC-76): 0.015 µg/mL (≈ 0.0371 µM)
COc1c(N2CCC(O)C(CO)C2)c(F)cc2c(=O)c(C(=O)O)cn(C3CC3)c12 (stereo not drawn) [drawing 324]	0.25 (≈ 0.615 µM)	0.015 (≈ 0.0369 µM)	0.125 (≈ 0.308 µM)	
COc1c(N2CCC3(CC2)OCCO3)c(F)cc2c(=O)c(C(=O)O)cn(C3CC3)c12 [drawing 325]	0.5 (≈ 1.19 µM)	0.06 (≈ 0.143 µM)	0.06 (≈ 0.143 µM)	
Cc1c(N2CCC(CCO)CC2)c(F)cc2c(=O)c(C(=O)O)cn(C3CC3)c12 [drawing 326]	0.06 (≈ 0.154 µM)	0.03 (≈ 0.0772 µM)	0.015 (≈ 0.0386 µM)	
COc1c(N2CCC(C(O)CO)CC2)c(F)cc2c(=O)c(C(=O)O)cn(C3CC3)c12 (stereo not drawn) [drawing 327]	0.125 (≈ 0.297 µM)	0.03 (≈ 0.0714 µM)	0.06 (≈ 0.143 µM)	
COc1c(N2CCC(O)(CO)CC2)c(F)cc2c(=O)c(C(=O)O)cn(C3CC3)c12 [drawing 328]	0.25 (≈ 0.615 µM)	0.015 (≈ 0.0369 µM)	0.125 (≈ 0.308 µM)	
COc1c(N2CCC(CO)CC2)c(F)cc2c(=O)c(C(=O)O)cn(C3CC3)c12 [drawing 329]	0.125 (≈ 0.32 µM)	0.015 (≈ 0.0384 µM)	0.015 (≈ 0.0384 µM)	
Cc1c(N2CCC(O)C(C)(C)C2)c(F)cc2c(=O)c(C(=O)O)cn(C3CC3)c12 (stereo not drawn) [drawing 330]	2 (≈ 5.15 µM)	0.125 (≈ 0.322 µM)	0.5 (≈ 1.29 µM)	
COc1c(N2CCC(O)C(C)(C)C2)c(F)cc2c(=O)c(C(=O)O)cn(C3CC3)c12 (stereo not drawn) [drawing 331]	0.25 (≈ 0.618 µM)	0.125 (≈ 0.309 µM)	0.125 (≈ 0.309 µM)	
COc1c(N2CCC(O)C(C)C2)c(F)cc2c(=O)c(C(=O)O)cn(C3CC3)c12 (stereo not drawn) [drawing 332]	0.25 (≈ 0.64 µM)	0.03 (≈ 0.0768 µM)	0.03 (≈ 0.0768 µM)	
COc1c(N2CCC(O)(c3ccccc3)CC2)c(F)cc2c(=O)c(C(=O)O)cn(C3CC3)c12 [drawing 333]	32 (≈ 70.7 µM)	2 (≈ 4.42 µM)	1 (≈ 2.21 µM)	
COc1c(N2CCCC(C(O)CO)C2)c(F)cc2c(=O)c(C(=O)O)cn(C3CC3)c12 (stereo not drawn) [drawing 334]	1 (≈ 2.38 µM)	0.125 (≈ 0.297 µM)	0.25 (≈ 0.595 µM)	
COc1c(N2CCCC(CO)C2)c(F)cc2c(=O)c(C(=O)O)cn(C3CC3)c12 (stereo not drawn) [drawing 335]	0.25 (≈ 0.64 µM)	0.03 (≈ 0.0768 µM)	0.06 (≈ 0.154 µM)	
COc1c(N2CCCC(O)(CO)C2)c(F)cc2c(=O)c(C(=O)O)cn(C3CC3)c12 (stereo not drawn) [drawing 336]	1 (≈ 2.46 µM)	0.03 (≈ 0.0738 µM)	0.5 (≈ 1.23 µM)	
COc1c(N2CCC(O)C(C)C2)c(F)cc2c(=O)c(C(=O)O)cn(C3CC3)c12 (stereo not drawn) [drawing 337]				Minimum Inhibitory Concentrations, E. coli MC4100 (E. coli MC4100): 0.25 µg/mL; Minimum Inhibitory Concentrations, H. influenzae HI-3542 (H. influenzae HI-3542): 0.03 µg/mL
